# Assays:
# Carbonic anhydrase 4 = molecular target: T1, Carbonic anhydrase 4 (Bos taurus, UniProt Q95323)
# T1 sequence (Q95323 whole entry): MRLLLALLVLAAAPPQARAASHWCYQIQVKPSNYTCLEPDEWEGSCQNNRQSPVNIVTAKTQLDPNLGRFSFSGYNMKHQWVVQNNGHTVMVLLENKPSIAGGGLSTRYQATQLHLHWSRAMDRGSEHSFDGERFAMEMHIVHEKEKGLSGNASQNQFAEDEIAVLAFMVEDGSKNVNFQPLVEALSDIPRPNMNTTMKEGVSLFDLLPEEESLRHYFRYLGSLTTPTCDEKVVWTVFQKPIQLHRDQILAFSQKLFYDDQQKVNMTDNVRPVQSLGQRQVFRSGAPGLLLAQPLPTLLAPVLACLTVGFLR
# Description: Inhibitory activity against bovine carbonic anhydrase IV (CA4), isolated from bovine lung microsomes
# Carbonic anhydrase 1 = Carbonic anhydrase 1 (Homo sapiens, UniProt P00915)
# Description: Inhibitory activity against human recombinant carbonic anhydrase I (CA1)
# [1] = not given; remark: listed apart in the source
# [2] = octanol/water
# Description: Partition coefficient (logD) (chloroform/buffer)
# Chain of Carbonic anhydrase 1 (P00915 whole entry): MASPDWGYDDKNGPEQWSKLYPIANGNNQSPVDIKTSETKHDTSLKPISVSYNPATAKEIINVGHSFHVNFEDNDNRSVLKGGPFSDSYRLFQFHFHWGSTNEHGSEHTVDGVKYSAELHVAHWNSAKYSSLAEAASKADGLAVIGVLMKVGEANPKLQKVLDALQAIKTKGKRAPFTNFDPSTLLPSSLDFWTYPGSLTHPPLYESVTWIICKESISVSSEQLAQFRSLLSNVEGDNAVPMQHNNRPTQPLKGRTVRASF
Ki (Carbonic anhydrase 4) [nM],Ki (Carbonic anhydrase 1) [nM],kin [h⁻¹],kin [1] [h⁻¹],logD [2],Compound
57,45,–,–,–,CN(CC(=O)Nc1ccc(S(=O)(=O)Nc2cccc(S(N)(=O)=O)c2)cc1)C(=N)N
73,600,–,–,–,NCC(=O)Nc1ccc(S(N)(=O)=O)cc1Br
235,17000,–,–,–,NCC(=O)NCC(=O)Nc1cccc(S(N)(=O)=O)c1
205,20300,–,–,–,CN(CC(=O)Nc1ccccc1S(N)(=O)=O)C(=N)N
62,510,–,–,–,CNCC(=O)Nc1ccc(S(N)(=O)=O)cc1Cl
62,12,–,–,–,NCC(=O)NCC(=O)NS(=O)(=O)c1nc2ccc(O)cc2s1
46,540,–,–,–,NCC(=O)Nc1ccc(S(N)(=O)=O)cc1F
11,9,–,–,–,CN(CC(=O)NS(=O)(=O)c1nc2ccc(OCCO)cc2s1)C(=N)N
62,525,–,–,–,CN(CC(=O)Nc1ccc(S(N)(=O)=O)cc1Br)C(=N)N
60,60,–,–,–,CNCC(=O)Nc1nccc(Nc2ccc(S(N)(=O)=O)cc2)n1
74,610,–,–,–,NCC(=O)Nc1ccc(S(N)(=O)=O)cc1I
70,335,–,–,–,Cn1nc(S(N)(=O)=O)s/c1=N\C(=O)CN
64,775,–,–,–,CN(CC(=O)NCCc1ccc(S(N)(=O)=O)cc1)C(=N)N
150,1500,–,–,–,NCC(=O)NCC(=O)NS(=O)(=O)c1ccc(CO)cc1
61,51,–,–,–,CNCC(=O)Nc1ccc(S(=O)(=O)Nc2cccc(S(N)(=O)=O)c2)cc1
53,44,–,–,–,Nc1ccc(S(=O)(=O)Nc2cccc(S(N)(=O)=O)c2)cc1
140,14600,–,–,–,CN(CC(=O)Nc1ccc(S(N)(=O)=O)cc1)C(=N)N
35,98,–,–,–,CCN(C(=O)CN)C1CC(C)S(=O)(=O)c2sc(S(N)(=O)=O)cc21 (centres undefined)
60,360,–,–,–,NCC(=O)Nc1cc(Cl)c(S(N)(=O)=O)cc1S(N)(=O)=O
12,10,–,–,–,CN(CC(=O)Nc1ccc2nc(S(N)(=O)=O)sc2c1)C(=N)N
75,61,–,–,–,NCC(=O)Nc1nccc(Nc2ccc(S(N)(=O)=O)cc2)n1
60,55,–,–,–,NCC(=O)NCC(=O)Nc1ccc(S(=O)(=O)Nc2cccc(S(N)(=O)=O)c2)cc1
39,305,–,–,–,CNCC(=O)Nc1nnc(S(N)(=O)=O)s1

Ki (Carbonic anhydrase 4) [nM],Ki (Carbonic anhydrase 1) [nM],kin [h⁻¹],kin [1] [h⁻¹],logD [2],Compound
9,21,–,–,–,CNCC(=O)NCCC(=O)Nc1nnc(S(N)(=O)=O)s1
51,525,–,–,–,CN(CC(=O)Nc1c(S(N)(=O)=O)cc(S(N)(=O)=O)c(Cl)c1Cl)C(=N)N
64,16,–,–,–,NCC(=O)NCC(=O)Nc1ccc2nc(S(N)(=O)=O)sc2c1
177,16200,–,–,–,CN(CC(=O)Nc1cccc(S(N)(=O)=O)c1)C(=N)N
82,1400,–,–,–,NCC(=O)NCc1ccc(S(N)(=O)=O)cc1
69,60,–,–,–,NCC(=O)NCC(=O)Nc1nccc(Nc2ccc(S(N)(=O)=O)cc2)n1
15,10,–,–,–,CNCC(=O)NS(=O)(=O)c1nc2ccc(OCCO)cc2s1
45,540,–,–,–,NCC(=O)NCC(=O)Nc1ccc(S(N)(=O)=O)cc1F
71,590,–,–,–,NCC(=O)NCC(=O)Nc1ccc(S(N)(=O)=O)cc1I
60,510,–,–,–,CN(CC(=O)Nc1ccc(S(N)(=O)=O)cc1Cl)C(=N)N
64,540,–,–,–,CNCC(=O)Nc1ccc(S(N)(=O)=O)cc1Br
–,11,–,–,–,CNCC(=O)Nc1ccc(S(=O)(=O)/N=c2\sc(S(N)(=O)=O)nn2C)cc1
154,15000,–,–,–,NCC(=O)NCC(=O)Nc1ccc(S(N)(=O)=O)cc1
146,15000,–,–,–,CNCC(=O)Nc1ccc(S(N)(=O)=O)cc1
78,600,–,–,–,NCC(=O)Nc1ccc(S(N)(=O)=O)cc1Cl
300,25500,–,–,–,NCC(=O)NNc1ccc(S(N)(=O)=O)cc1
72,17,–,–,–,NCC(=O)Nc1ccc2nc(S(N)(=O)=O)sc2c1
175,–,–,–,–,NCC(=O)Nc1ccc(S(N)(=O)=O)cc1
300,25200,–,–,–,NCC(=O)NCC(=O)NNc1ccc(S(N)(=O)=O)cc1
69,16,–,–,–,NCC(=O)NS(=O)(=O)c1nc2ccc(O)cc2s1
–,11,–,–,–,CN(CC(=O)Nc1ccc(S(=O)(=O)/N=c2\sc(S(N)(=O)=O)nn2C)cc1)C(=N)N
62,520,–,–,–,NCC(=O)Nc1c(S(N)(=O)=O)cc(S(N)(=O)=O)c(Cl)c1Cl
76,850,–,–,–,NCC(=O)NCCc1ccc(S(N)(=O)=O)cc1

Ki (Carbonic anhydrase 4) [nM],Ki (Carbonic anhydrase 1) [nM],kin [h⁻¹],kin [1] [h⁻¹],logD [2],Compound
44,280,–,–,–,Cn1nc(S(N)(=O)=O)s/c1=N/C(=O)CNC(=O)CN
79,60,–,–,–,NCC(=O)Nc1ccc(S(=O)(=O)Nc2cccc(S(N)(=O)=O)c2)cc1
150,1500,–,–,–,NCC(=O)NCC(=O)NS(=O)(=O)c1ccc(CCO)cc1
71,950,–,–,–,CN(CC(=O)NCc1ccc(S(N)(=O)=O)cc1)C(=N)N
195,16600,–,–,–,CNCC(=O)Nc1cccc(S(N)(=O)=O)c1
75,1360,–,–,–,NCC(=O)NCC(=O)NCc1ccc(S(N)(=O)=O)cc1
70,560,–,–,–,CNCC(=O)Nc1ccc(S(N)(=O)=O)cc1I
51,46,–,–,–,CN(CC(=O)Nc1ccc(S(=O)(=O)Nc2ccc(S(N)(=O)=O)cc2)cc1)C(=N)N
70,800,–,–,–,NCC(=O)NCC(=O)NCCc1ccc(S(N)(=O)=O)cc1
112,1300,–,–,–,CNCC(=O)NS(=O)(=O)c1ccc(CCO)cc1
70,570,–,–,–,NCC(=O)NCC(=O)Nc1ccc(S(N)(=O)=O)cc1Br
155,1700,–,–,–,NCC(=O)NS(=O)(=O)c1ccc(CCO)cc1
23,9,–,–,–,NCC(=O)NS(=O)(=O)c1nc2ccc(OCCO)cc2s1
245,25000,–,–,–,NCC(=O)Nc1ccccc1S(N)(=O)=O
54,360,–,–,–,NCC(=O)NCC(=O)Nc1cc(Cl)c(S(N)(=O)=O)cc1S(N)(=O)=O
14,10,–,–,–,CNCC(=O)Nc1ccc2nc(S(N)(=O)=O)sc2c1
180,1800,–,–,–,NCC(=O)NS(=O)(=O)c1ccc(CO)cc1
15,11,–,–,–,CN(CC(=O)NS(=O)(=O)c1nc2ccc(O)cc2s1)C(=N)N
50,–,–,–,–,Nc1ccc(S(=O)(=O)Nc2ccc(S(N)(=O)=O)cc2)cc1
89,1200,–,–,–,CN(CC(=O)NS(=O)(=O)c1ccc(CO)cc1)C(=N)N
46,500,–,–,–,CNCC(=O)Nc1ccc(S(N)(=O)=O)cc1F
86,1000,–,–,–,CN(CC(=O)NS(=O)(=O)c1ccc(CCO)cc1)C(=N)N
240,23500,–,–,–,NCC(=O)NCC(=O)Nc1ccccc1S(N)(=O)=O

Ki (Carbonic anhydrase 4) [nM],Ki (Carbonic anhydrase 1) [nM],kin [h⁻¹],kin [1] [h⁻¹],logD [2],Compound
12,21,–,–,–,NCC(=O)NCC(=O)NCCC(=O)Nc1nnc(S(N)(=O)=O)s1
40,53,–,–,–,CN(CC(=O)Nc1nccc(Nc2ccc(S(N)(=O)=O)cc2)n1)C(=N)N
123,1500,–,–,–,CNCC(=O)NS(=O)(=O)c1ccc(CO)cc1
42,310,–,–,–,CN(CC(=O)Nc1cc(Cl)c(S(N)(=O)=O)cc1S(N)(=O)=O)C(=N)N
0.8,1,–,–,–,Cn1nc(S(N)(=O)=O)s/c1=N\S(=O)(=O)c1ccc(N)cc1
74,965,–,–,–,CNCC(=O)NCc1ccc(S(N)(=O)=O)cc1
–,13,–,–,–,Cn1nc(S(N)(=O)=O)s/c1=N\S(=O)(=O)c1ccc(NC(=O)CNC(=O)CN)cc1
55,520,–,–,–,CNCC(=O)Nc1c(S(N)(=O)=O)cc(S(N)(=O)=O)c(Cl)c1Cl
70,820,–,–,–,CNCC(=O)NCCc1ccc(S(N)(=O)=O)cc1
69,545,–,–,–,CN(CC(=O)Nc1ccc(S(N)(=O)=O)cc1I)C(=N)N
66,54,–,–,–,NCC(=O)NCC(=O)Nc1ccc(S(=O)(=O)Nc2ccc(S(N)(=O)=O)cc2)cc1
86,62,–,–,–,NCC(=O)Nc1ccc(S(=O)(=O)Nc2ccc(S(N)(=O)=O)cc2)cc1
30,11,–,–,–,CNCC(=O)NS(=O)(=O)c1nc2ccc(O)cc2s1
5,12,–,–,–,CN(CC(=O)Nc1ccc(S(=O)(=O)Nc2nnc(S(N)(=O)=O)s2)cc1)C(=N)N
65,550,–,–,–,NCC(=O)NCC(=O)Nc1ccc(S(N)(=O)=O)cc1Cl
154,–,–,–,–,Nc1nccc(Nc2ccc(S(N)(=O)=O)cc2)n1
280,22000,–,–,–,CNCC(=O)NNc1ccc(S(N)(=O)=O)cc1
–,–,1.9,13,0.06,CC(=O)/N=c1/sc(S(N)(=O)=O)nn1C [METHAZOLAMIDE]
245,20800,–,–,–,CN(CC(=O)NNc1ccc(S(N)(=O)=O)cc1)C(=N)N
–,15,–,–,–,Cn1nc(S(N)(=O)=O)s/c1=N\S(=O)(=O)c1ccc(NC(=O)CN)cc1
205,20300,–,–,–,CNCC(=O)Nc1ccccc1S(N)(=O)=O
